Tested on: 451 kinases
Experiment: Kinome profiling, count of kinases inhibited in the whole panel
Assay type: binding
Conditions: substantially defined as over 36% inhibition at 1 uM

O=C1Nc2ccc(I)cc2/C1=C/c1cc(Br)c(O)c(Br)c1 [GW5074, reference compound]
kinases inhibited substantially of the 451 kinases tested: 21

From patent US20210353631A1, “1,4-Benzoxazines for the Treatment of Cancers and Other Neurodegenerative Diseases” (Neugeneron LLC, priority 2020, published 2021)
